Test [1] concerns MDCK-II. Description: Antimigratory activity against MDCK2 cells assessed as inhibition of HGF-induced cell scattering at 1 uM pretreated for 18 hrs followed by HGF addition measured after 20 to 24 hrs by crystal violet staining-based assay relative to control. The class given is functional. Conditions: Canis lupus familiaris.
The test system of test [2] is MCF7. Kind of test: Antiproliferative activity against human MCF7 cells at 10 uM relative to control. It counts as functional, cell-based.
For the next test, the system named is MDA-MB-468. Kind of test: Antiproliferative activity against human MDA-MB-468 cells at 10 uM relative to control. The class given is functional.
For test [3], the system named is MDCK-II. Description: Antimigratory activity against MDCK2 cells assessed as inhibition of HGF-induced cell scattering pretreated for 18 hrs followed by HGF addition measured after 20 to 24 hrs by crystal violet staining-based assay. It counts as functional. Particulars: Canis lupus familiaris.
Test [4] relates to A2780. Kind of test: Cell cycle arrest in human A2780 cells assessed as accumulation at S phase at 300 nM (reference value: 21.16 to 22.81%). It counts as functional.
Test [5] deals with A2780. Kind of test: Cell cycle arrest in human A2780 cells assessed as accumulation at G1 phase at 300 nM (reference value: 55.26 to 55.66%). It counts as functional.
Test [6] deals with A2780. Description: Cell cycle arrest in human A2780 cells assessed as accumulation at G2/M phase at 300 nM (reference value: 19.42 to 20.43%). It counts as functional.
For test [7], the system named is MCF7. Description: Cell cycle arrest in human MCF7 cells assessed as accumulation at G1 phase at 300 nM (reference value: 47.47 to 52.3%). The class given is functional.
The test system of test [8] is MCF7. Kind of test: Cell cycle arrest in human MCF7 cells assessed as accumulation at S phase at 300 nM (reference value: 25.36 to 26.82%). The class given is functional.
Test [9] concerns MCF7. Kind of test: Cell cycle arrest in human MCF7 cells assessed as accumulation at G2/M phase at 300 nM (reference value: 20.06 to 22.33%). The class given is functional.
For test [10], the system named is PC-3. Description: Cell cycle arrest in human p53-null PC3 cells assessed as accumulation at G1 phase at 300 nM (reference value: 50.77 to 51.16%). It counts as functional.
For test [11], the system named is PC-3. Description: Cell cycle arrest in human p53-null PC3 cells assessed as accumulation at S phase at 300 nM (reference value: 29.08 to 29.33%). It counts as functional.
The subject of test [12] is PC-3. Description: Cell cycle arrest in human p53-null PC3 cells assessed as accumulation at G2/M phase at 300 nM (reference value: 18.37 to 18.96%). The class given is functional.
Test [13] has as its system MFE-280. Kind of test: Cell cycle arrest in human MFE280 cells assessed as accumulation at G1 phase at 300 nM (reference value: 64.99 to 67.86%). The class given is functional.
The test system of test [14] is MFE-280. Description: Cell cycle arrest in human MFE280 cells assessed as accumulation at S phase at 300 nM (reference value: 14.14 to 15.66%). The class given is functional.
The subject of test [15] is MFE-280. Description: Cell cycle arrest in human MFE280 cells assessed as accumulation at G2/M phase at 300 nM (reference value: 16.43 to 17.9%). It counts as functional.
Test [16] relates to MFE-296. Description: Cell cycle arrest in human MFE296 cells assessed as accumulation at G1 phase at 300 nM (reference value: 61.05 to 64.87%). The class given is functional.
In test [17] the test system is MFE-296. Kind of test: Cell cycle arrest in human MFE296 cells assessed as accumulation at S phase at 300 nM (reference value: 16.96 to 19.19%). The class given is functional.
For test [18], the system named is MFE-296. Kind of test: Cell cycle arrest in human MFE296 cells assessed as accumulation at G2/M phase at 300 nM (reference value: 15.71 to 17.04%). The class given is functional.
For test [19], the system named is T47D. Kind of test: Cell cycle arrest in human T47D cells assessed as accumulation at G1 phase at 300 nM (reference value: 45.5 to 57.8%). The class given is functional.
The subject of test [20] is T47D. Kind of test: Cell cycle arrest in human T47D cells assessed as accumulation at S phase at 300 nM (reference value: 19.89 to 24.55%). It counts as functional.
In test [21] the test system is T47D. Description: Cell cycle arrest in human T47D cells assessed as accumulation at G2/M phase at 300 nM (reference value: 20.58 to 28.8%). It counts as functional.
Test [22] is described as follows: (§1) Inhibition of bovine brain tubulin polymerization. Further details: species or system Bos taurus.
The species named for test [23] is Bos taurus. The test is described as §1.
The subject of test [24] is A2780. Kind of test: Antiproliferative activity against human A2780 cells. The class given is functional, cell-based.
The nature of test [25]: Antimigratory activity against human SW.71 cells at 10 uM after 18 hrs by crystal violet staining-based assay relative to control. It counts as functional. Conditions: SW.71, 18 h.
Test [26] is filed under the species Bos taurus. Kind of test: Inhibition of colchicine binding to bovine brain tubulin up to 25 uM by fluorescence based assay relative to control.
The nature of test [27]: Binding affinity to tubulin (unknown origin) by isothermal titration calorimetric analysis. Further details: species or system Homo sapiens. (In general: ITC needs no label: the signal is the heat of the interaction.)
The species named for the next test is Homo sapiens. Kind of test: Binding affinity to tubulin (unknown origin) by CD spectroscopic method.

Active and inactive are the calls of the source. The calls are words filed in the database; no cut-off is given here.

Take `Cc1nc(NC(=O)c2cccc([N+](=O)[O-])c2)ccc1I`: the inhibition at 1 µM in the test on MDCK-II [1] was 71 to 95.9%. The inhibition at 10 µM with MCF7 [2] worked out at 84%; in the test on MDA-MB-468, 73%. In the test with MDCK-II [3], the concentration giving a half-maximal response (EC50) was 3000 nM.
Take `CC(=O)O[C@H]1C(=O)[C@@]2(C)[C@H]([C@H](OC(=O)c3ccccc3)[C@]3(O)C[C@H](OC(=O)[C@H](O)[C@@H](NC(=O)c4ccccc4)c4ccccc4)C(C)=C1C3(C)C)[C@]1(OC(C)=O)CO[C@@H]1C[C@@H]2O` [PACLITAXEL]: the Activity in the test on A2780 [4] was found to be 10.42%; in the test on A2780 [5] it was 13.37%; in the test on A2780 [6] it was 70.7%; in the test on MCF7 [7], 3.43%; with MCF7 [8] it was 7.07%; with MCF7 [9], 86.54%. For the same compound, the Activity in the test with PC-3 [10] is given as 8.25%; with PC-3 [11], 20.78%; in the test with PC-3 [12] it was 70.82%; with MFE-280 [13] it was 34.74%; in the test with MFE-280 [14], 22.1%; in the test on MFE-280 [15], 39.59%. Moreover, the Activity is 26.72% in the test on MFE-296 [16]; 19.73% in the test with MFE-296 [17]; 51.88% with MFE-296 [18]; 30.62% in the test with T47D [19]; 27.89% in the test on T47D [20]; 41.49% in the test on T47D [21].
In test [22], `Cc1ncc(C(=O)Nc2ccc(-c3cccc(C4CC4)c3)cn2)cn1` showed an IC50 of 885 nM. Besides, the inhibition result in the test filed under Bos taurus [23] was “Dose-dependent effect”.
Compound `CC[C@]1(O)C[C@H]2CN(CCc3c([nH]c4ccccc34)[C@@](C(=O)OC)(c3cc4c(cc3OC)N(C=O)[C@H]3[C@@](O)(C(=O)OC)[C@H](OC(C)=O)[C@]5(CC)C=CCN6CC[C@]43[C@@H]65)C2)C1` [VINCRISTINE] came in with a half-inhibitory concentration (IC50) in [22] of 400 to 684 nM.
As for `Cc1ccc(C(=O)Nc2ccc(-c3cccc(C4CCO4)c3)cn2)cn1` (configuration not stated), in test [22], the IC50 was 295 nM. Moreover, the inhibition entry in the test listed under Bos taurus [23] was “Dose-dependent effect”.
The compound `Cc1ncc(C(=O)Nc2ccc(-c3cccc(NC4CC4)c3)cn2)cn1` had an IC50 in test [22] of 319 nM. In addition, the inhibition result in the test listed under Bos taurus [23] was “Dose-dependent effect”.
With `O=C(Nc1ccc(-c2ccccc2)cn1)c1ccncn1`, the concentration for a half-maximal effect (EC50) in the test on MCF7 [2] and with A2780 [24] was above 10000 nM throughout.
The compound `Cc1ncc(C(=O)Nc2ccc(-c3cccc(OC4CC4)c3)cn2)cn1` displayed an IC50 in [22] of 817 nM. Further, the inhibition result in the test filed under Bos taurus [23] was “Dose-dependent effect”.
Take `O=C(Nc1ccc(-c2ccccc2Cl)cn1)c1cncnc1`: the results for the EC50 in the test with MCF7 [2] and in the test on A2780 [24] were 127 nM and 255 nM, respectively.
For `O=C(Nc1ccc(-c2ccsc2)cn1)c1cncnc1`, the EC50 in the test with MCF7 [2] was found to be 66 nM; in the test with A2780 [24] it was 60 nM.
For the compound `O=C(Nc1ccc(-c2ccccc2)cc1)c1cncnc1`, the EC50 in the test on MCF7 [2] and in the test on A2780 [24] was above 10000 nM in each case.
As for `Cc1nc(NC(=O)c2cncnc2)ccc1I`, in the test with MDCK-II [1], the inhibition at 1 µM is 249%. For the same compound, the inhibition at 10 µM in test [25] came to 80%.
Regarding `O=C(Nc1ccc(-c2ccccc2)cn1)c1cccnc1`, the 50% effective concentration (EC50) in the test with MCF7 [2] stood at 220 nM; with A2780 [24] it was 78 nM.
Regarding `O=C(Nc1ncc(-c2ccccc2)cn1)c1cncnc1`, the EC50 in the test with MCF7 [2] turned out to be 272 nM; in the test on A2780 [24], 68 nM.
`Cc1ncc(C(=O)Nc2ccc(-c3cccc(S(=O)(=O)C4CC4)c3)cn2)cn1` displayed an IC50 in test [22] of 240 nM. The inhibition entry in the test filed under Bos taurus [23] was “Dose-dependent effect”; in the test filed under Bos taurus [26], 70%. Moreover, the affinity in [27], expressed as Kd, was 190 nM. For the same compound, the result in the test filed under Homo sapiens was Active.
Take `O=S(=O)(Nc1ccc(-c2ccccc2)cn1)c1cccnc1`: the EC50 in the test with MCF7 [2] and in the test with A2780 [24] was above 10000 nM throughout.
Consider `Cc1ncncc1C(=O)Nc1ccc(-c2ccccc2)cn1`, for which the EC50 in the test on MCF7 [2] and in the test on A2780 [24] was above 10000 nM throughout.
Take `O=C(COc1cncnc1)Nc1ccc(-c2ccccc2)cn1`: the EC50 with MCF7 [2] and with A2780 [24] was above 10000 nM each time.
As for `O=C(Nc1ccc(-c2ccoc2)cn1)c1cncnc1`, the EC50 in the test with MCF7 [2] was determined as 205 nM; in the test with A2780 [24], 271 nM.
Take `O=C(Nc1ccc(-c2ccccn2)cn1)c1cncnc1`: the values for the 50% effective concentration (EC50) with MCF7 [2] and with A2780 [24] were 651 nM and 612 nM, respectively.
`O=C(Nc1ccc(-c2cccc(C3CC3)c2)cn1)c1cncnc1`: half-maximal inhibition in [22] (IC50) required 1030 nM. In addition, the inhibition entry in the test filed under Bos taurus [23] is “Dose-dependent effect”.

By inhibition is commonly meant the drop in the measured response relative to a control, in per cent. Broadly, the EC50 is the concentration that produces a half-maximal response. Usually IC50 stands for the concentration that gives 50% inhibition. A low value points to higher potency. A word on the Kd: it is the constant that tells how readily two partners part at equilibrium.

The record behind these values is ChEMBL document CHEMBL4043145, “Pyridine-pyrimidine amides that prevent HGF-induced epithelial scattering by two distinct mechanisms” (Bioorg Med Chem Lett, 2017).
